Measurements as given in ChEMBL document CHEMBL1132801, “NMR analysis of tautomerisms of active pinacidil-type potassium channel openers and a less active one” (2000).

Each compound was assayed on Canis familiaris (assay: The compound was tested for its antihypertensive activity in dogs after intravenous injection).
Assay type: functional, Canis lupus familiaris

Compound | Relative activity
CCC(C)(C)/N=C(\NC#N)Nc1cc(Cl)cc(C#N)c1 | 2.04
CC(N/C(=C\[N+](=O)[O-])Nc1ccccc1)C(C)(C)C (centres undefined) | 1.82
CCC(C)(C)N/C(=C\C#N)Nc1cc(Cl)cc(C#N)c1 | <0.3
CC(N/C(=N\C#N)Nc1ccncc1)C(C)(C)C (centres undefined) [PINACIDIL ANHYDROUS] | 1
